Holding throughout (type): in vivo, cynomolgus monkeys
One data set concerns C3 protein. Briefly: Serum C3 protein (ELISA) in non-human primates after single SC dose. The conditions noted are these: for reduction of serum C3 protein vs baseline: by day 29. Here is the method:
(§1) Naive male cynomolgus monkeys (n=3 in each group) were subcutaneously (SC) administered a single dose of either 3 mg/kg, 10 mg/kg, or 30 mg/kg siRNA 58, or vehicle (phosphate buffered saline) on day 1.
(§2) Serum samples were scheduled to be collected on days −5, −1, 3, 8, 15, 22, 29, 40, 57, 67, 82, 97, 112, 127, 142, 157, 172 and 184 (where negative values correspond to days before injection with siRNA 58 or vehicle). The level of C3 protein in serum was measured using an ELISA assay. Additionally, serum samples were also analyzed for alternative complement pathway activity (AH50). Values at day −1 value were used as the baseline.
On the technique in general: ELISA stands for enzyme-linked immunosorbent assay.

Data set [1] concerns alternative complement pathway. Briefly: Serum alternative complement pathway activity (AH50) in non-human primates. Here is the method: as §1, §2
Another data set concerns C3 mRNA. Briefly: Liver biopsy C3 mRNA (quantitative PCR) in non-human primates after single SC dose. Particulars: for reduction of liver C3 mRNA vs vehicle control: by day 15. Here is the method: as §1
Liver needle biopsies were performed on days 15, 46 and 79. The level of C3 mRNA in the samples was measured using a quantitative PCR assay. C3 mRNA level was normalized to the level of ActB mRNA in these experiments.

Where [2] appears, read: single SC dose 3, 10 or 30 mg/kg.

The results in this text go back to US20230095695A1, “RNAS FOR COMPLEMENT INHIBITION” (Apellis Pharmaceuticals, Inc., priority 2020, published 2023).

Oligonucleotides are written 5' to 3', each unit as a sugar letter and its base; * is a phosphorothioate linkage, no mark a phosphodiester; rarer units and linkages stand in square brackets, end groups in braces. Plain capitals give the bases only. {GalNAc-NHC6} = GalNAc ligand attached through an NHC6 linker; m = 2'-O-methyl; f = 2'-fluoro

Consider “siRNA 58: siRNA 53 further modified; sense SEQ ID NO: 325 / antisense SEQ ID NO: 275; GalNAc conjugated via NHC6 linker at 5′ end of sense strand (sense {GalNAc-NHC6}-mC*mC*fAmAmCmUfAfCfAmUmGfAmAmCmCmUfA*mC*mA; antisense mU*fG*mUmAmGmGmUmUmCmAmUmGmUfAmGmUmUmGmG*mC*mU) [siRNA 53 further modified; GalNAc conjugated via NHC6 linker at 5′ end of sense strand]”, for which the “reduction of serum C3 protein vs baseline” value with C3 protein (single SC dose 3 mg/kg) was determined as 77%; in the data set with C3 protein (single SC dose 10 mg/kg) it was 85%; in the data set with C3 protein (single SC dose 30 mg/kg) it was 90%. Also, the “duration of serum C3 protein reduction” value in the data set on C3 protein (setting [2]) is given as “sustained out to day 67”. The “reduction of alternative complement pathway activity (AH50) vs baseline” value was found to be 65% in data set [1] (single SC dose 3 mg/kg, by day 29); 68% in data set [1] (single SC dose 3 mg/kg, day 67); 82% in data set [1] (single SC dose 10 mg/kg, by day 29); 91% in data set [1] (single SC dose 10 mg/kg, day 67); 92% in data set [1] (single SC dose 30 mg/kg, by day 29); 98% in data set [1] (single SC dose 30 mg/kg, day 67). For the same substance, the “reduction of liver C3 mRNA vs vehicle control” value in the data set with C3 mRNA (single SC dose 3 mg/kg) came to 89%; with C3 mRNA (single SC dose 10 mg/kg) it was 97%; in the data set on C3 mRNA (single SC dose 30 mg/kg), 99%. Further, in the data set with C3 mRNA (setting [2]), the “duration of liver C3 mRNA reduction” value is listed as “sustained at day 46”.
